By IC50 is commonly meant the concentration that inhibits the measured activity by half.

Several values for one entry are separate records, joined by “and”; a condition that tells them apart may be missing. Identical values can stand only once. Some results are limits rather than exact numbers.

The assay relates to S. Typhimurium GFP reporter counter-screen, fluorescence, 4 h. Nature of the assay: S. Typhimurium nonspecific reporter signal inhibition – Salmonella Typhimurium, GFP fluorescence, counter-screen for PhoP regulon inhibitor project, dose response (AID 2401).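 Note: S. typhimurium with Mg-insensitive nmpC-GFP reporter grown at 10 µM Mg2+; drop in reporter fluorescence reflects general culture growth inhibition.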 A general note: A counterscreen serves to expose hits that act by an unwanted route or on another target.
Turning to `O=C1c2ccccc2NC(c2ccc(-c3cccc(Cl)c3)o2)N1O` (stereo not given), the IC50 is 52.2 µM.

As to `CC(C)COc1ccc(Cc2cnc(N)nc2N)cc1`, the IC50 is 61.8 µM.

`Cc1ccc(-c2csc(N=C(N)N)n2)cc1`: the IC50 is 109 µM.

Take `COc1cc([N+](=O)[O-])cc(/C=N\NC(=O)C2COc3ccccc3O2)c1O` (stereo not given): the IC50 was 85.3 µM.

With `NCCc1c(-c2ccccc2)n(-c2ccccc2)c2ccccc12`, the IC50 was 43.7 µM.

As to `COc1ccccc1CNCCc1ccc(F)cc1`, the IC50 was 35 µM.

Turning to `CCN(CC)CCOc1ccc2c(c1)C(=NNC(=O)c1ccccn1)c1cc(OCCN(CC)CC)ccc1-2`, the IC50 is 38.1 µM.

On to `NC1=NC2(CCCCC2)N=C(Nc2ccc(Br)cc2)N1`, for which the 50% inhibitory concentration (IC50) is 119 µM.

On to `Cc1ccc(Nc2cc(C)nn2-c2nc(C)cc(=O)[nH]2)cc1`, for which the IC50 was 13.1 µM.

Regarding `O=C(C[n+]1cccc(CNC(=O)c2ccc(OC(F)F)cc2)c1)Nc1ccc(SC(F)F)cc1`, the IC50 was 78.4 µM.

In the case of `NC1=NC[C@H](Cc2ccc(O)cc2)N1CCC12CC3CC(CC(C3)C1)C2`, the IC50 was 70.7 µM.

Take `O=C(N/N=C/c1coc2ccc(Cl)cc2c1=O)c1cc(O)cc(O)c1`: the IC50 was 88 µM.

As to `Cc1ccc(C)c(/C=C/C(=O)c2ccccc(=O)c2O)c1`, the IC50 was 38.9 µM.

`Cc1cccc(Nc2cc(C)c3c(O)cccc3n2)c1C`: the concentration for half-maximal inhibition (IC50) is 38.8 µM.

For the compound `CCCc1cnc(NCCNCC(O)COc2ccc(Cl)c(Cl)c2)nc1` (stereo not given), the IC50 is 40.3 µM.

Regarding `O=C(NCCNc1ccc([N+](=O)[O-])cc1C(F)(F)F)c1cccc(F)c1`, the IC50 is 106 µM.

Take `CCCCCCCCCCCCCCCCn1cc[n+](C)c1`: the IC50 is 16.3 µM.

Take `Oc1ccc(CN2CCc3ccccc3C2)c2cccnc12`: the IC50 is 18.5 µM.

Regarding `CCN1CCN(C(c2ccc(C(F)(F)F)cc2)c2ccc3cccnc3c2O)CC1` (stereo not given), the IC50 was 39.4 µM.

`CO[C@H]1C=CO[C@@]2(C)Oc3c(C)c(O)c4c(O)c(c(C=NN5CCN(C)CC5)c(O)c4c3C2=O)NC(=O)C(C)=CC=C[C@H](C)[C@H](O)[C@@H](C)[C@@H](O)[C@@H](C)[C@H](OC(C)=O)[C@@H]1C`: the IC50 was 3.44 µM.

Consider `CCCCNC(=O)c1cn(CC)c2cc(N3CCN(C)CC3)c(F)cc2c1=O`, for which the IC50 was 41.8 µM.

For `O=[N+]([O-])c1ccc(N/N=C/c2ccc[nH]2)cc1`, the IC50 is 62 µM.

For `Cc1cc(NC(c2cccnc2)c2ccc3cccnc3c2O)no1` (stereo not given), the IC50 was 105 µM.

In the case of `CN1CCN(c2c(F)cc3c(=O)c(C(=O)O)cn4c3c2SCC4)CC1`, the IC50 was 8.06 µM and 8.09 µM.

`NCC12CC3CC(C1)CC(c1ccc(Br)cc1)(C3)C2`: the IC50 was 40.3 µM.

As to `O=C(NC(CO)Cc1ccc([N+](=O)[O-])cc1)C(Cl)Cl` (stereo not given), the IC50 is 12.7 µM.

With `O=c1cc2oc3cc(O)c(O)cc3c(-c3ccccc3[N+](=O)[O-])c-2cc1O`, the half-maximal inhibitory concentration (IC50) was 28.5 µM.

For the compound `CCCCCCCCn1c2c(c(=N)c3c1CCC3)CCCC2`, the IC50 is 70.9 µM.

Consider `CCn1cc(C(=O)O)c(=O)c2cnc(N3CCNCC3)nc21`, for which the concentration for half-maximal inhibition (IC50) was 68.4 µM.

As for `CCCCCCCCCCOC(=O)C[N+](C)(C)C/C=C(/C)Cl`, the IC50 was 44.9 µM.

With `CCCCCCCOC(=O)C[N+](C)(C)CCOC1CC2CCC1(C)C2(C)C` (stereo not given), the IC50 is 20.1 µM.

`O=Cc1ccc(O)c2ncccc12`: the IC50 is 8.12 µM.

For `C[C@H]1c2cccc(O)c2C(O)=C2C(=O)[C@]3(O)C(O)=C(C(N)=O)C(=O)[C@@H](N(C)C)C3[C@@H](O)C21` (stereo not given in full), the IC50 is 2.3 µM.

`CCCCCC(CC(=O)NO)C(=O)NC(C(=O)N1CCCC1CO)C(C)C` (stereo not given): the IC50 was 144 µM.

`O=S1(=O)Nc2c(ccc3cccnc23)-c2ccccc21`: the IC50 is 2.73 µM.

For the compound `O=C(c1cccs1)c1no[n+]([O-])c1C(=O)c1cccs1`, the IC50 is 39.1 µM.

In the case of `C#CCOCCOCCOCCNc1nc(N2CCN(C(=O)CCCCCCCCCCNC(=O)[C@H]([C@@H](C)CC)n3cc(CCCCN=C(N)N)nn3)CC2)nc(N2CCN(C(=O)CCCCCCCCCCNC(=O)[C@H](CCCN=C(N)N)n3cc(C[C@@H](C)CC)nn3)CC2)n1`, the IC50 is 45.9 µM.

In the case of `COc1c(N2CCN(C(=S)NCc3ccccc3)C(C)C2)c(F)cc2c(=O)c(C(=O)O)cn(C3CC3)c12` (stereo not given), the IC50 was 90.4 µM.

For the compound `C=CCNc1ncnc2c1[nH]c1ccccc12`, the IC50 is 118 µM.

Consider `CN(C)c1ccc(/C=C/c2ccc3ccccc3[n+]2C)cc1`, for which the IC50 was 19.8 µM.

As for `Oc1cccc2ccc(Nc3ccccn3)nc12`, the IC50 was 10.7 µM.

For `COC12C(COC(N)=O)C3=C(C(=O)C(C)=C(N)C3=O)N1CC1C2N1C` (stereo not given), the IC50 was 77.2 µM.

With `COc1ccc(OCc2n(CC(=O)OC3CC(C)CCC3C(C)C)c3ccccc3[n+]2C)cc1` (stereo not given), the IC50 was 39.6 µM.

With `CCn1cc(C(=O)O)c(=O)c2cc(F)c(N3CCN(C(=S)NC(=O)c4cccc(F)c4)CC3)cc21`, the IC50 is 69.6 µM.

In the case of `CN1CCN(C(c2ccccn2)c2cc(Cl)c3cccnc3c2O)CC1` (stereo not given), the IC50 is 43.9 µM.

For the compound `COc1ccc(Nc2cc(C)c3c(O)cccc3n2)cc1`, the IC50 was 47.2 µM.

As for `Cc1cccc(Nc2c3c(nc4ccccc24)CCC3)c1`, the IC50 is 109 µM.

As to `CCn1cc(C(=O)O)c(=O)c2cc(F)c(N3CCN(C(=S)Nc4ccc(OC)cc4)CC3)cc21`, the IC50 was 15.3 µM.

For the compound `Cc1ccc(Nc2nc(N)c3ccccc3n2)cc1Cl`, the IC50 is 52.2 µM.

For the compound `CCn1cc(C(=O)O)c(=O)c2cc(F)c(N3CCN(C(=O)Nc4ccccc4)CC3)cc21`, the IC50 was 75.2 µM.

Consider `Cc1ccc(S(=O)(=O)Nc2cc(Cl)c(O)c3ncccc23)cc1`, for which the IC50 is 29 µM.

In the case of `CO/N=C(/C(=O)N[C@@H]1C(=O)N2C(C(=O)O)=CCS[C@H]12)c1cnc(N)s1`, the IC50 is 18.4 µM.

Regarding `NC1CCN(c2c(F)cc3c(=O)c(C(=O)O)cn(C4CC4)c3c2Cl)C1` (stereo not given), the IC50 is under 0.23 µM.

For the compound `O=[N+]([O-])c1ccc(O)c(/C=N/Nc2ccccn2)c1`, the IC50 is 13.9 µM.

Take `CCCCCNCC(=O)Nc1cccc(C(=O)Nc2cccc(C(F)(F)F)c2)c1`: the IC50 is 83.2 µM.

For the compound `Cc1nc2c(=O)n(C)c(=O)n(C)c2nc1Cl`, the IC50 is 106 µM.

As for `Cc1cc(C(=O)N/N=C/c2cc(Br)cc([N+](=O)[O-])c2O)c2ccccc2n1`, the IC50 is 109 µM.

As for `O=C(O)CSc1cc(NS(=O)(=O)c2cccc([N+](=O)[O-])c2)c2ccccc2c1O`, the IC50 was 83.5 µM.

With `Oc1c(CN2CCc3ccccc3C2)cc(Cl)c2cccnc12`, the IC50 was 17.4 µM.

As to `CCCCCCCSc1cc(OC)c(CCNC)cc1OC`, the IC50 was 39.4 µM.

On to `S=c1nc(C2CCCCC2)[nH][nH]1`, for which the IC50 is 99 µM.

For the compound `COC(=O)c1cc(C)nc2c1C(=O)C(=O)C=C2N1CCOCC1`, the IC50 is 118 µM.

Consider `Oc1c(C(c2ccccn2)N2CCOCC2)ccc2cccnc12` (stereo not given), for which the IC50 was 88.6 µM.

As to `O=C(O)C1Nc2c(O)cccc2C2C=CCC12` (stereo not given), the IC50 is 86.9 µM.

On to `O=C(CN1CCCC1)N/N=C/c1c(O)ccc2ccccc12`, for which the IC50 was 29.9 µM.

As to `CN1CCN(c2c(F)cc3c(=O)c(C(=O)O)cn4c3c2OCN4C)CC1`, the IC50 was 0.61 µM.

With `CC[C@@H](C)[C@H](CNC)NC[C@@H](Cc1cccc2ccccc12)NCCc1cccc(C(F)(F)F)c1`, the IC50 is 32.3 µM.

With `Oc1c(Br)cc(Br)cc1C=NCc1ccccc1`, the IC50 was 99.2 µM.

Take `Oc1cccc(C=NCc2ccccc2)c1O`: the IC50 was 144 µM.

As for `C#CCOCCOCCOCCNc1nc(N2CCN(C(=O)CCCCCCCCCCNC(=O)[C@H]([C@@H](C)CC)n3cc(CCCCN=C(N)N)nn3)CC2)nc(N2CCN(C(=O)CCCCCCCCCCNC(=O)[C@H]([C@@H](C)CC)n3cc(CCCCN=C(N)N)nn3)CC2)n1`, the IC50 is 43.4 µM.

With `Cc1ccc(C(=O)Sc2cccccc2=O)cc1`, the IC50 was 9.74 µM.

As for `C=C1c2c(Cl)ccc(O)c2C(O)=C2C(=O)[C@]3(O)C(O)=C(C(N)=O)C(=O)[C@@H](N(C)C)[C@@H]3[C@@H](O)C12` (stereo not given in full), the IC50 is 1.28 µM.

Consider `O=C(N/N=C/c1cc(Cl)ccc1O)c1ccncc1`, for which the IC50 is 20.6 µM.

For `CCCC(=O)NC(c1ccccc1)c1ccc2cccnc2c1O` (stereo not given), the IC50 is 40 µM.

For the compound `O=C(O)Cc1sc(Nc2ccc(Cl)cc2)nc1-c1cccs1`, the IC50 is 147 µM.

Turning to `COc1cccc(/C=N/Nc2ncc(C(F)(F)F)cc2Cl)c1O`, the IC50 is 126 µM.

For `C/C(CC(=O)Nc1ccc(Cl)c(C(F)(F)F)c1)=N\NC(=O)c1cc2ccccc2cc1O`, the IC50 is 80.6 µM.

For `CCOc1ccc(Nc2nc(N)c3ccccc3n2)cc1`, the IC50 is 86.2 µM.

Turning to `CCOC(=O)N1CCN(C(c2cccnc2)c2ccc3cccnc3c2O)CC1` (stereo not given), the IC50 is 41.8 µM.

Regarding `O=C(NC(CO)C(O)c1ccc([N+](=O)[O-])cc1)C(Cl)Cl` (stereo not given), the IC50 is 10.1 µM.

`O=C(N/N=C/c1cc([N+](=O)[O-])ccc1O)C1CC1`: the IC50 was 34 µM.

Turning to `CCCCCN=C(N)N/N=C/c1c[nH]c2ccc(OC)cc12`, the IC50 was 37 µM.

In the case of `C/C(=C\C(=O)OCCCCCCCCC(=O)O)C[C@@H]1OC[C@H](C[C@@H]2O[C@H]2[C@@H](C)[C@H](C)O)[C@@H](O)[C@H]1O`, the IC50 was 9.67 µM.

Regarding `CCCNC1=C(C)C(=O)C2=C(C1=O)C(COC(N)=O)[C@]1(OC)C3NC3CN21` (stereo not given in full), the IC50 is 128 µM.

Take `O=C(N/N=C/c1cccc([N+](=O)[O-])c1O)c1cccs1`: the IC50 was 16.8 µM.

As for `COc1ccc(C(=O)Cn2nc(CNc3ccc(Br)cc3)[n+]3c2CCCCC3)cc1`, the IC50 was 80.8 µM.

In the case of `C=CS(=O)(=O)c1ccc(Oc2ccc(S(=O)(=O)C=C)cc2)cc1`, the IC50 was 111 µM.

Consider `CCC(C)(C)c1ccc(OCCCC[n+]2ccccc2)c(C(C)(C)CC)c1`, for which the IC50 was 34.9 µM.

As to `COc1cccc(/C=N\NC(=O)Cn2nnc3ccccc32)c1O`, the IC50 was 57.6 µM.

For `COc1cc(C(=O)Oc2c(CN3CCOCC3)cc(Cl)c3cccnc23)cc(OC)c1OC`, the IC50 was 126 µM.

With `O=C(N/N=C/c1sc2ccccc2c1O)c1cccc2ccccc12`, the IC50 was 23.6 µM.

For the compound `C[C@H]1c2cccc(O)c2C(O)=C2C(=O)C3(O)C(O)=C(C(N)=O)C(=O)[C@@H](N(C)C)[C@@H]3[C@@H](O)[C@@H]21` (stereo not given in full), the IC50 was 3.63 µM.

For `N#CC1=C(S)N(c2ccccc2)C(c2ccc(-c3ccccc3Cl)o2)NC1=O` (stereo not given), the IC50 is 144 µM.

As to `Cc1conc1NC(c1cccs1)c1ccc2cccnc2c1O` (stereo not given), the IC50 is 25.1 µM.

Take `Oc1c(I)cc(Cl)c2cccnc12`: the IC50 was 8.56 µM.

The values are drawn from PubChem BioAssay AID2401 (Southern Research Specialized Biocontainment Screening …, 2010).
